According to ChEMBL document CHEMBL1121950, “Species- or isozyme-specific enzyme inhibitors. 9. Selective effects in inhibitions of rat pyruvate kinase isozymes by adenosine 5'-diphosphate derivatives” (J Med Chem, 1982):
Values joined by “and” are separate entries in the source; they are usually repeats but may differ in a detail not shown here. Equal values may be shown once.

Experiments:
Pyruvate kinase PKLR [1] = target: T1, Pyruvate kinase PKLR (Rattus norvegicus, UniProt P12928); assay: Inhibitory constant for inhibition of pyruvate kinase obtained from rat liver (PK-L) was determined using ADP as competitive inhibitor
Pyruvate kinase PKM [2] = target: T2, Pyruvate kinase PKM (Rattus norvegicus, UniProt P11980); assay: Inhibition of rat muscle pyruvate kinase (PK-M)
Pyruvate kinase PKLR [3] = target: T1, Pyruvate kinase PKLR; assay: Inhibition of rat liver pyruvate kinase (PK-L) at 7.2 mM
Pyruvate kinase PKLR [4] = target: T1, Pyruvate kinase PKLR; assay: Inhibition of rat liver pyruvate kinase (PK-L) at 3.6 mM
Pyruvate kinase PKLR [5] = target: T1, Pyruvate kinase PKLR; assay: Inhibition of rat kidney pyruvate kinase (PK-L)
Pyruvate kinase PKLR [6] = target: T1, Pyruvate kinase PKLR; assay: Inhibition of rat liver pyruvate kinase (PK-L); (relative inhibitory potency)
Pyruvate kinase PKM [7] = target: T2, Pyruvate kinase PKM; assay: Inhibition of rat muscle pyruvate kinase (PK-M) at 10 mM
Pyruvate kinase PKM [8] = target: T2, Pyruvate kinase PKM; assay: Inhibition of rat muscle pyruvate kinase (PK-M) at 6.7 mM
Pyruvate kinase PKLR [9] = target: T1, Pyruvate kinase PKLR; assay: Inhibition of rat liver pyruvate kinase (PK-L) at 10.7 mM

T1 sequence (P12928 whole entry): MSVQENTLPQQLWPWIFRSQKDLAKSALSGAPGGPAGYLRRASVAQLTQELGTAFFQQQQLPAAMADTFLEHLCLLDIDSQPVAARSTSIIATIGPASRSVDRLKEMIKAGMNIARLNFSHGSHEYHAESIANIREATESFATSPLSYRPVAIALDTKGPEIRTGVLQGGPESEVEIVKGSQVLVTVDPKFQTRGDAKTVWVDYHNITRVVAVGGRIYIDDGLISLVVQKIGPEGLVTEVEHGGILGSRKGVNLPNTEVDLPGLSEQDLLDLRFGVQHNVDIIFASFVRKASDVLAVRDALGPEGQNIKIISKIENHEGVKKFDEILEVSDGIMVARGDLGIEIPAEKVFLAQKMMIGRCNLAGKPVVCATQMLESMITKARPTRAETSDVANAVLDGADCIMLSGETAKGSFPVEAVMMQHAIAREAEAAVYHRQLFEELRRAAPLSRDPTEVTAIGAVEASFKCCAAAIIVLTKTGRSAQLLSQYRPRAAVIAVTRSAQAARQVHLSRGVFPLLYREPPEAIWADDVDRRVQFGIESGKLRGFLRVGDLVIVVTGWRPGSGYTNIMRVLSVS
T2 sequence (P11980 whole entry): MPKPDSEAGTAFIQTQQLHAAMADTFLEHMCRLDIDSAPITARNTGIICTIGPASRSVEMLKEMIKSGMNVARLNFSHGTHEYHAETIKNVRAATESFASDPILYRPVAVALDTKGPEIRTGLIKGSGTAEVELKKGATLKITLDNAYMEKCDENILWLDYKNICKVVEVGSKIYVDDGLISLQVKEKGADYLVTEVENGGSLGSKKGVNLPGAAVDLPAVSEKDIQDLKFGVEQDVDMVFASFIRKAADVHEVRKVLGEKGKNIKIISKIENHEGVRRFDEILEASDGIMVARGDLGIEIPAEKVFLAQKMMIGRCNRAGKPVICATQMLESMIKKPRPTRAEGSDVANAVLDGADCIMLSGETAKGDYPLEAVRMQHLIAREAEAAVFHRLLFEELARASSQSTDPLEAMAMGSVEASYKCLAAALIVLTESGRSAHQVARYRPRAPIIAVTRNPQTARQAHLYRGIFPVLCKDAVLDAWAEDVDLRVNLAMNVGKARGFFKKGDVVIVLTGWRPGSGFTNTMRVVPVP

Row | Compound | Ki (Pyruvate kinase PKLR [1]) | Ki (Pyruvate kinase PKM [2]) | also measured
1 | CO[C@H]1[C@@H](O)[C@H](n2cnc3c(N)ncnc32)O[C@@H]1COP(=O)(O)OP(=O)(O)O | 32 mM | 9.3 mM | –
2 | CC1O[C@@H]2[C@H](O1)[C@@H](COP(=O)(O)OP(=O)(O)O)O[C@H]2n1cnc2c(N)ncnc21 (some centres not stated) | – | 1.6 mM | Ki (Pyruvate kinase PKLR [3]): 2.2 mM; Ki (Pyruvate kinase PKLR [4]): 4.6 mM
3 | CCCNc1nc2c(N)ncnc2n1C1O[C@H](COP(=O)(O)OP(=O)(O)O)[C@@H](O)[C@H]1O (some centres not stated) | – | 0.9 mM | Ki (Pyruvate kinase PKLR [5]): 1.6 mM; Ki (Pyruvate kinase PKLR [6]): 3.8 mM
4 | CSc1nc2c(N)ncnc2n1C1O[C@H](COP(=O)(O)OP(=O)(O)O)[C@@H](O)[C@H]1O (some centres not stated) | 7.5 mM | 4.3 mM | –
5 | C[C@@H](OP(=O)(O)OP(=O)(O)O)[C@H]1OC(n2cnc3c(N)ncnc32)[C@H](O)[C@@H]1O (some centres not stated) | – | – | Ki (Pyruvate kinase PKM [7]): 4.5 mM; Ki (Pyruvate kinase PKM [8]): 7 mM; Ki (Pyruvate kinase PKLR [9]): 5.4 mM
6 | CCNc1nc2c(N)ncnc2n1C1O[C@H](COP(=O)(O)OP(=O)(O)O)[C@@H](O)[C@H]1O (some centres not stated) | 2.2 mM and 3.9 mM | 0.5 mM and 0.87 mM | –
7 | CCSc1nc2c(N)ncnc2n1C1O[C@H](COP(=O)(O)OP(=O)(O)O)[C@@H](O)[C@H]1O (some centres not stated) | 8.4 mM | 3.7 mM | –
